Reference: the supplement of paper PMC10307832

Assays:
Assay in all cases: relative viability (nuclei count vs DMSO), 5 days (fraction); higher = more cells survive
Cediranib + Luminespib = compound: COc1cc2c(Oc3ccc4[nH]c(C)cc4c3F)ncnc2cc1OCCCN1CCCC1 [Cediranib] + CCNC(=O)c1noc(-c2cc(C(C)C)c(O)cc2O)c1-c1ccc(CN2CCOCC2)cc1 [Luminespib] (partner 0.01 µM)
Summary of the method: (§1)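 Lung cancer cell lines were seeded in 1536-well plates and dosed by pin tool the next day, with either a single drug or a fixed anchor-drug dose combined with five library-drug doses (not always all listed) spaced in √10 steps. Five days later, one step fixed the cells and stained their nuclei (final 0.05% Triton X-100, 1% formaldehyde, 1 ug/ml Hoechst), and nuclei were counted on 4× images. Relative viability is the nuclei count in treated wells divided by the count in vehicle wells, and each value is the median of duplicate plates.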

Decitabine + Tozasertib = compound: Nc1ncn([C@H]2C[C@H](O)[C@@H](CO)O2)c(=O)n1 [Decitabine] + Cc1cc(Nc2cc(N3CCN(C)CC3)nc(Sc3ccc(NC(=O)C4CC4)cc3)n2)n[nH]1 [Tozasertib] (partner 0.1 µM)
Summary of the method: as §1

Decitabine + Navitoclax = compound: Nc1ncn([C@H]2C[C@H](O)[C@@H](CO)O2)c(=O)n1 [Decitabine] + CC1(C)CCC(c2ccc(Cl)cc2)=C(CN2CCN(c3ccc(C(=O)NS(=O)(=O)c4ccc(N[C@H](CCN5CCOCC5)CSc5ccccc5)c(S(=O)(=O)C(F)(F)F)c4)cc3)CC2)C1 [Navitoclax] (partner 0.5 µM)
Summary of the method: as §1

Cediranib + Pictilisib = compound: COc1cc2c(Oc3ccc4[nH]c(C)cc4c3F)ncnc2cc1OCCCN1CCCC1 [Cediranib] + CS(=O)(=O)N1CCN(Cc2cc3nc(-c4cccc5[nH]ncc45)nc(N4CCOCC4)c3s2)CC1 [Pictilisib] (partner 1 µM)
Summary of the method: as §1

Cell Line | relative viability (Cediranib + Luminespib; first compound 0.04 µM) | relative viability (Cediranib + Luminespib; first compound 0.4 µM) | relative viability (Cediranib + Luminespib; first compound 1.265 µM) | relative viability (Cediranib + Luminespib; first compound 4 µM) | relative viability (Decitabine + Tozasertib; first compound 0.04 µM) | relative viability (Decitabine + Tozasertib; first compound 0.1265 µM) | relative viability (Decitabine + Tozasertib; first compound 0.4 µM) | relative viability (Decitabine + Tozasertib; first compound 1.265 µM) | relative viability (Decitabine + Tozasertib; first compound 4 µM) | relative viability (Decitabine + Navitoclax; first compound 0.04 µM) | relative viability (Decitabine + Navitoclax; first compound 0.1265 µM) | relative viability (Decitabine + Navitoclax; first compound 0.4 µM) | relative viability (Decitabine + Navitoclax; first compound 1.265 µM) | relative viability (Decitabine + Navitoclax; first compound 4 µM) | relative viability (Cediranib + Pictilisib; first compound 0.04 µM) | relative viability (Cediranib + Pictilisib; first compound 0.4 µM) | relative viability (Cediranib + Pictilisib; first compound 1.265 µM) | relative viability (Cediranib + Pictilisib; first compound 4 µM) | relative viability (Cediranib + Pictilisib; first compound 0.1265 µM) | relative viability (Cediranib + Luminespib; first compound 0.1265 µM)
HCC-15 | 0.188 | 0.261 | 0.225 | 0.425 | 0.308 | 0.388 | 0.345 | 0.213 | 0.175 | 0.654 | 0.646 | 0.469 | 0.413 | 0.348 | 0.602 | 0.699 | 0.686 | 0.987 | – | –
HCC-44 | – | 0.986 | 1.07 | 0.843 | – | 1.01 | 0.174 | 0.457 | 0.382 | 0.78 | 0.74 | 0.362 | 0.408 | 0.425 | 0.589 | 0.552 | 0.669 | 0.714 | – | –
HCC-78 | – | – | – | – | 0.443 | 0.488 | 0.369 | 0.38 | 0.291 | 0.71 | 0.561 | 0.458 | 0.329 | 0.284 | 0.24 | 0.21 | 0.174 | 0.187 | 0.204 | –
HCC-366 | – | – | – | – | 0.0988 | 0.104 | 0.0711 | 0.0439 | 0.0387 | 0.92 | 0.906 | 0.382 | 0.232 | 0.133 | 0.138 | 0.127 | 0.0996 | 0.17 | 0.148 | –
HCC-827 | 0.724 | 0.541 | 0.5 | 0.439 | 0.253 | 0.265 | 0.219 | 0.221 | 0.224 | – | 0.471 | 0.404 | 0.269 | 0.939 | 1.1 | 0.955 | 0.944 | 0.97 | – | –
HOP-62 | 1.01 | 0.79 | 0.949 | 0.94 | 0.226 | 0.229 | 0.141 | 0.108 | 0.104 | 0.572 | 0.388 | 0.15 | 0.172 | 0.14 | 0.813 | 0.578 | 0.413 | 1.16 | – | –
IA-LM | – | – | – | – | – | – | – | – | – | 0.415 | 0.313 | 0.156 | 0.162 | 0.169 | 0.369 | 0.315 | 0.406 | 0.361 | 0.577 | –
LCLC-103H | 0.931 | 0.952 | 1 | 0.894 | 0.485 | 0.463 | 0.308 | 0.369 | 0.253 | – | – | – | – | – | 0.63 | 0.619 | 0.654 | 0.56 | 0.754 | 1.05
NCI-H358 | 0.257 | 0.381 | 0.328 | 0.364 | 0.121 | 0.0951 | 0.0825 | 0.1 | 0.0948 | – | – | – | – | – | 0.323 | 0.314 | 0.271 | 0.404 | 0.462 | 0.426
NCI-H522 | 1.13 | 1.17 | 1.03 | 1.02 | 0.538 | 0.624 | 0.376 | 0.446 | 0.37 | – | – | – | – | – | – | – | – | – | – | –
NCI-H650 | 0.842 | 0.763 | 1.02 | 0.774 | 0.562 | 0.468 | 0.372 | 0.264 | 0.245 | – | – | – | – | – | 0.848 | 0.836 | 0.915 | 1.04 | 0.956 | 0.831
NCI-H661 | 0.978 | 0.913 | 0.908 | 0.982 | 0.345 | 0.33 | 0.341 | 0.318 | 0.348 | – | – | – | – | – | 0.428 | 0.419 | 0.318 | 0.366 | 0.588 | 0.842
NCI-H1299 | – | – | – | – | – | – | – | – | – | 1.04 | 1.03 | 1.02 | 0.898 | 0.848 | 0.866 | 0.719 | 0.853 | 0.748 | 0.844 | –
NCI-H1563 | 0.513 | 0.541 | 0.559 | 0.601 | – | – | – | – | – | – | – | – | – | – | 0.727 | 0.711 | 0.66 | 0.595 | 0.576 | 0.456
NCI-H1623 | 0.528 | 0.425 | 0.457 | 0.526 | 0.401 | 0.422 | 0.367 | 0.373 | 0.305 | – | – | – | – | – | – | – | – | – | – | –
NCI-H1648 | – | – | – | – | 0.519 | 0.402 | 0.321 | 0.172 | 0.184 | – | – | – | – | – | – | – | – | – | – | –
NCI-H1703 | – | – | – | – | – | – | – | – | – | 0.845 | 0.642 | 0.255 | 0.189 | 0.253 | 0.226 | 0.209 | 0.194 | 0.221 | 0.209 | –
NCI-H1792 | 0.429 | 0.479 | 0.538 | 0.508 | – | – | – | – | – | 0.6 | 0.672 | 0.625 | 0.454 | 0.304 | 0.305 | 0.3 | 0.312 | 0.291 | 0.33 | 0.644
NCI-H2342 | 0.858 | 0.919 | 0.704 | 0.82 | 0.495 | 0.502 | 0.552 | 0.385 | 0.362 | – | – | – | – | – | – | – | – | – | – | 0.801
SW 900 | 0.167 | 0.195 | 0.188 | 0.169 | 0.288 | 0.297 | 0.222 | 0.182 | 0.15 | – | – | – | – | – | – | – | – | – | – | 0.186
